The source made the active and inactive calls. The rule behind the calls is not given here.
How the values were obtained:
[1] = Cmax po dosed in human co-treated with rifampin; format: ADME, organism-based; set-up: route oral; conditions: in vivo
Staphylococcus aureus [2] = assay: Antimicrobial activity against Staphylococcus aureus infection in human assessed as curing from bone/joint infection at 600 mg, iv followed by 30 to 40 mg/kg of body weight, iv followed by oral regimen upto 30 months; format: functional, organism-based
Serum [3] = assay: Drug level in bone/joint infection patient serum assessed as median concentration at 2400 mg, iv after 3 to 14 days; format: ADME, organism-based; conditions: human, in vivo
Serum [4] = assay: Drug level in bone/joint infection patient serum assessed as median concentration at 2400 mg, iv after 8 to 28 days; format: ADME, organism-based; conditions: human, in vivo
Staphylococcus aureus [5] = assay: Antimicrobial activity against Staphylococcus aureus SJ11617; format: functional

| Structure (SMILES) | Cmax [1] [ng/mL] | Activity (Staphylococcus aureus [2]) | Drug uptake (Serum [3]) [mg/L] | Drug uptake (Serum [4]) [mg/L] | MIC (Staphylococcus aureus [5]) [µg/mL] |
| --- | --- | --- | --- | --- | --- |
| CCC[C@@H]1C[C@@H](C(=O)N[C@@H]([C@H]2O[C@H](SC)[C@H](O)[C@@H](O)[C@H]2O)[C@H](C)Cl)N(C)C1 [CLINDAMYCIN] | < 2500 | Active | 5 | 6.2 |  |
| C[C@@H]1O[C@@H]1P(=O)(O)O [FOSFOMYCIN] |  |  |  |  | > 512 |
| CC(=O)O[C@H]1C[C@@]2(C)[C@@H](C[C@@H](O)[C@H]3[C@@]4(C)CC[C@@H](O)[C@@H](C)[C@@H]4CC[C@@]32C)/C1=C(\CCC=C(C)C)C(=O)O [FUSIDIC ACID] |  |  |  |  | > 256 |
| CO[C@H]1/C=C/O[C@@]2(C)Oc3c(C)c(O)c4c(O)c(c(/C=N/N5CCN(C)CC5)c(O)c4c3C2=O)NC(=O)/C(C)=C\C=C\[C@H](C)[C@H](O)[C@@H](C)[C@@H](O)[C@@H](C)[C@H](OC(C)=O)[C@@H]1C [RIFAMPIN] |  |  |  |  | > 128 |
